Results taken from patent US20230233736A1, “ANTIMICROBIAL FORMULATIONS COMPRISING SILICONE” (AMICOAT AS, priority 2020, published 2023).

Key:
Candida tropicalis = test: MIC microbroth dilution (CLSI); assay type: cell-based; settings: ATCC750 - reference strain
Aspergillus niger = test: MIC microbroth dilution (CLSI); assay type: cell-based; settings: G.R. Micro collection
[1] = system: Trichophyton mentagrophytes; test: MIC microbroth dilution (CLSI); assay type: cell-based; settings: G.R. Micro collection
[2] = system: Trichophyton interdigitale; test: MIC microbroth dilution (CLSI); assay type: cell-based; settings: G.R. Micro collection
Microsporum canis = test: MIC microbroth dilution (CLSI); assay type: cell-based; settings: G.R. Micro collection
Cryptococcus neoformans = test: MIC microbroth dilution (CLSI); assay type: cell-based; settings: G.R. Micro collection
Acinetobacter baumanii = test: MIC microbroth dilution (CLSI); assay type: cell-based; design: unit not given beside the values; settings: antibiotic-susceptible clinical isolate
From the text: (§1) Cation-adjusted Mueller-Hinton broth (Oxoid Ltd., Basingstoke, UK and Trek Diagnostic Systems Ltd., East Grinstead, UK) (supplemented with 5% laked horse blood for Streptococcus spp., Corynebacterium jeikeium and Listeria monocytogenes) was used for aerobic bacteria, with an initial inoculum of approximately 10^5 colony-forming units (CFU)/m L.

Streptococcus pyogenes [3] = assay type: cell-based; settings: Macrolide (M-type) resistance clinical isolate
From the text: as §1

Clostridium difficile = test: MIC microbroth dilution (CLSI); assay type: cell-based; design: unit not given beside the values; settings: antibiotic-susceptible clinical isolate
Bacteroides fragilis = test: MIC microbroth dilution (CLSI); assay type: cell-based; design: unit not given beside the values; settings: ATCC 25285; SBB
Eggerthella lenta = test: MIC microbroth dilution (CLSI); assay type: cell-based; design: unit not given beside the values; settings: ATCC 43055; SBB
[4] = system: Staphylococcus aureus FDA486; test: Murine skin infection model, topical treatment; assay type: in vivo, mice; settings: FIG. 1; cream or gel containing 2% (w/w), three treatments at three hourly intervals, compared to placebo
Experimental: (§2) The skin of mice was infected with Staphylococcus aureus or Streptococcus pyogenes and subsequently given a total of three treatments at three hourly intervals. Three hours after the last treatment, skin biopsies were collected and the number of colony forming units (CFUs) present in the skin sample was determined. Results are shown in FIGS. 1 and 2, expressed as the number of colony forming units per mouse.
In experiment 1 (FIG. 1), compound 2 was applied to the murine skin as part of either a cream or a gel containing 2% (w/w) of compound 2. The same cream or gel without compound 2 was used as a negative control (placebo).
(§3) The skin of mice was infected with Staphylococcus aureus or Streptococcus pyogenes and subsequently given a total of three treatments at three hourly intervals. Three hours after the last treatment, skin biopsies were collected and the number of colony forming units (CFUs) present in the skin sample was determined. Results are shown in FIGS. 3, 4 and 5 expressed as the number of colony forming units per mouse.
In experiment 1 (FIG. 3), compound 7 was applied to the murine skin as part of either a cream or a gel containing 2% (w/w) of compound 7. The same cream or gel without compound 7 was used as a negative control (placebo). Bactroban 2% cream was used as a positive control.
In experiment 3 (FIG. 5), compound 8 was applied in a 2% cream formulation on a Staphylococcus aureus FDA 486 infection in the murine skin infection model. A placebo cream and two known antibacterials, “Fucidin (fucidic acid) ointment 2%” and “Bactroban (mupericin) cream 2%” were used as controls.

Streptococcus pyogenes [5] = test: Murine skin infection model, topical treatment; assay type: in vivo, mice; settings: FIG. 2
Experimental: as §2
In experiment 2 (FIG. 2), compound 2 was applied in two different concentrations, as either a 1% or a 2% gel. A placebo gel and a known antibacterial “bactroban” were used as controls.
as §3
In experiment 2 (FIG. 4), compound 7 was applied in two different concentrations, as either a 1% or a 2% gel. A placebo gel and a known antibacterial “bactroban (mupericin)” were used as controls.

[6] = system: Staphylococcus epidermidis RP62A; test: Growth inhibition zones around silicone prosthetic liner; assay type: cell-based
From the text: (§4) Bacterial Strains: • Staphylococcus epidermidis RP62A • Staphylococcus hominis 58-69
(§5) The level of bacterial inhibition was examined by number of CFU and growth zone inhibition. All materials tested were washed with water after completion of the swell and dry procedure to ensure that the activity of the materials was due to internally absorbed AMC-109 only.

[7] = system: Staphylococcus hominis 58-69; test: as above; assay type: cell-based
From the text: as §4, §5

[8] = system: Staphylococcus aureus, strain ATCC 25923; settings: S. aureus ATCC 25923
[9] = system: Methicillin resistant Staphylococcus aureus (MRSA) strain ATCC 33591; settings: MRSA ATCC 33591
[10] = system: Methicillin resistant Staphylococcus epidermidis (MRSE) strain ATCC 27626; settings: MRSE ATCC 27626
S. aureus (ATCC 8325) = test: Modified AATCC 100 method, silicone membrane valves
P. aeruginosa (PAO1) = test: as above; settings: low loading, original surface (A*)
E. coli (5067-6002) = test: as above; settings: low loading, original surface (A*)
S. epidermidis (RP62A) = test: as above; settings: low loading, original surface (A*)

CC(C)(C)c1cc(C(C)(C)C)c2[nH]c(C(C)(C)C)c(CC(NC(=O)C(N)CCCNC(=N)N)C(=O)NC(CCCNC(=N)N)C(=O)NCCc3ccccc3)c2c1 (centres unmarked) [Compound 2]
MIC (Candida tropicalis): 4 | MIC (Aspergillus niger): 8 | MIC [1]: 8 | MIC [2]: 8 | MIC (Microsporum canis): 8 | MIC (Cryptococcus neoformans): 4 | MIC (Acinetobacter baumanii): 16 | MIC (Streptococcus pyogenes [3]): 16 | MIC (Clostridium difficile): 16 | MIC (Bacteroides fragilis): 64 | MIC (Eggerthella lenta): 32 | number of colony forming units (CFU) in skin biopsy [4]: number of CFUs was reduced | number of CFUs, 2% gel compared with 1% gel (Streptococcus pyogenes [5]): more effective than the gel containing only 1% of compound 2 | number of colony forming units (CFU) in skin biopsy (Streptococcus pyogenes [5]; 1% or 2% gel, three treatments at three hourly intervals): more effective at reducing the number of CFUs than the placebo gel or the bactroban | growth inhibition zone ([6]; 5 minutes swell time): 3 mm | growth inhibition zone ([6]; 15 minutes swell time): 3 mm | growth inhibition zone ([7]; 5 minutes swell time): 4 mm | growth inhibition zone ([7]; 15 minutes swell time): 2 mm | MIC [8]: <3 µM | MIC [9]: <3 µM | MIC [10]: <3 µM | minimum inhibitory concentration (MIC) (S. epidermidis): 2 to 4 µg/mL | CFU (samples containing AMC-109) (S. aureus (ATCC 8325); High loading, swell concentration 8.3 mg/ml, original surface (A*)): 0 | CFU (samples containing AMC-109) (S. aureus (ATCC 8325); Low loading, 1.7 mg/ml, surface created by slicing (B*)): 0 | CFU (samples containing AMC-109) (S. aureus (ATCC 8325); Low with washing, 3.1 mg/ml, original surface (A*)): 0 | CFU (samples containing AMC-109) (S. aureus (ATCC 8325); Low with washing, 3.1 mg/ml, surface created by slicing (B*)): 0 | CFU (samples containing AMC-109) (P. aeruginosa (PAO1)): 0 | CFU (samples containing AMC-109) (E. coli (5067-6002)): 0 | CFU (samples containing AMC-109) (S. epidermidis (RP62A)): 0
